In PubChem BioAssay AID248 (DTP/NCI, 2004):
“And” between values parts separate entries of the source, which are not always exact repeats. Equal entries are not always repeated. Toxic doses and inconclusive results are not listed. Cut-off read from the data, not from the text of the source: active = T/C of 150% or more; inactive = T/C below 125%.

Test system: L1210 leukemia ip in BDF1 mice, survival T/C
Experiment: NCI In Vivo Anticancer Drug Screen. Data for tumor model L1210 Leukemia (intraperitoneal) in B6D2F1 (BDF1) mice
Details: endpoint: mean survival time, higher = longer survival
Procedure, shortened: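 Survival endpoint. Drug-treated group vs vehicle group, expressed as T divided by C. Tumor passaged by transplantation.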

[1] = dose: 100.0 mg/kg/injection, schedule: Q04DX002 (ip), vehicle: Klucel (hydroxypropylcellulose) (HPC)
[2] = dose: 200.0 mg/kg/injection, schedule: Q04DX002 (ip), vehicle: Klucel (hydroxypropylcellulose) (HPC)
[3] = dose: 400.0 mg/kg/injection, schedule: Q04DX002 (ip), vehicle: Klucel (hydroxypropylcellulose) (HPC)
[4] = dose: 100.0 mg/kg/injection, schedule: Q01DX009 (ip), vehicle: Klucel (hydroxypropylcellulose) (HPC)
[5] = dose: 100.0 mg/kg/injection, schedule: Q04DX003 (ip), vehicle: Klucel (hydroxypropylcellulose) (HPC)
[6] = dose: 200.0 mg/kg/injection, schedule: Q01DX009 (ip), vehicle: Klucel (hydroxypropylcellulose) (HPC)
[7] = dose: 200.0 mg/kg/injection, schedule: Q04DX003 (ip), vehicle: Klucel (hydroxypropylcellulose) (HPC)
[8] = dose: 400.0 mg/kg/injection, schedule: Q04DX003 (ip), vehicle: Klucel (hydroxypropylcellulose) (HPC)
[9] = dose: 50.0 mg/kg/injection, schedule: Q01DX009 (ip), vehicle: saline with Tween-80
[10] = dose: 100.0 mg/kg/injection, schedule: Q01DX009 (ip), vehicle: saline with Tween-80
[11] = dose: 100.0 mg/kg/injection, schedule: Q04DX003 (ip), vehicle: saline with Tween-80
[12] = dose: 200.0 mg/kg/injection, schedule: Q01DX009 (ip), vehicle: saline with Tween-80
[13] = dose: 200.0 mg/kg/injection, schedule: Q04DX003 (ip), vehicle: saline with Tween-80
[14] = dose: 400.0 mg/kg/injection, schedule: Q01DX009 (ip), vehicle: Klucel (hydroxypropylcellulose) (HPC)
[15] = dose: 100.0 mg/kg/injection, schedule: Q04DX003 (ip), vehicle: saline
[16] = dose: 200.0 mg/kg/injection, schedule: Q04DX003 (ip), vehicle: saline
[17] = dose: 400.0 mg/kg/injection, schedule: Q04DX003 (ip), vehicle: saline with Tween-80
[18] = dose: 100.0 mg/kg/injection, schedule: Q01DX001 (ip), vehicle: carboxymethylcellulose (CMC)
[19] = dose: 200.0 mg/kg/injection, schedule: Q01DX001 (ip), vehicle: carboxymethylcellulose (CMC)
[20] = dose: 400.0 mg/kg/injection, schedule: Q01DX001 (ip), vehicle: carboxymethylcellulose (CMC)
[21] = dose: 400.0 mg/kg/injection, schedule: Q04DX003 (ip), vehicle: saline

Measured: T/C

CCCCCOC(=O)Nc1ccc(S(=O)(=O)N(C)C)cc1
inactive: dose: 100.0 mg/kg/injection, schedule: Q01DX001 (ip), vehicle: saline 100 % of control | dose: 200.0 mg/kg/injection, schedule: Q01DX001 (ip), vehicle: saline 108 % of control | dose: 400.0 mg/kg/injection, schedule: Q01DX001 (ip), vehicle: saline 100 % of control

Cc1cc(N(CCCl)CCCl)ccc1C=Nc1ccc2c(c1)nc(C)n2C
inactive: [1] 93 % of control | [2] 112 % of control | [3] 97 % of control

C=CC12CCCCC1C(=C)C(=O)OC2 (configuration not stated)
inactive: dose: 12.5 mg/kg/injection, schedule: Q04DX002 (ip), vehicle: saline with Tween-80 92 % of control | dose: 25.0 mg/kg/injection, schedule: Q04DX002 (ip), vehicle: saline with Tween-80 99 % of control | dose: 50.0 mg/kg/injection, schedule: Q04DX002 (ip), vehicle: saline with Tween-80 96 % of control

CCC1CN2C(=N1)c1cc(Cl)ccc1-c1ccc(Cl)cc12 (configuration not stated)
inactive: [4] 95 % of control | [5] 101 % of control | [6] 98 % of control | [7] 103 % of control | [8] 116 % of control

CC(C)(CS(C)(=O)=O)C(=O)OCC(=O)c1ccccc1
inactive: [5] 108 % of control | [7] 105 % of control | [8] 105 % of control

NNS(=O)(=O)CCCCCCCCCCC(=O)O
inactive: [9] 99 % of control | [10] 96 % of control | [11] 92 % of control | [12] 91 % of control | [13] 90 % of control

CC(=O)[C@H]1[C@H](C)C[C@H]2[C@@H]3CCC4=CC(=O)CC[C@]4(C)[C@@]3(F)[C@@H](O)C[C@@]21C
inactive: [4] 103 % of control | [5] 100 % of control | [6] 101 % of control | [7] 97 % of control | [14] 97 % of control | [8] 101 % of control

[Cl][Nd]([Cl])[Cl]
inactive: dose: 12.5 mg/kg/injection, schedule: Q01DX009 (ip), vehicle: saline 98 % of control | dose: 25.0 mg/kg/injection, schedule: Q01DX009 (ip), vehicle: saline 87 % of control | dose: 50.0 mg/kg/injection, schedule: Q01DX009 (ip), vehicle: saline 93 % of control and 91 % of control | [15] 100 % of control | dose: 200.0 mg/kg/injection, schedule: Q01DX009 (ip), vehicle: saline 86 % of control | [16] 100 % of control

COc1ccc(COc2ccc(OC)cc2)cc1
inactive: [11] 95 % of control | [13] 96 % of control | [17] 98 % of control

O=C(OCc1ccccc1CN1CCCCC1)c1ccc([N+](=O)[O-])cc1Cl
inactive: [1] 98 % of control | [2] 98 % of control | [3] 91 % of control

COc1ccccc1-n1c(=O)c(N=Nc2ccc(Br)cc2)c(O)n(-c2ccccc2Cl)c1=S
inactive: dose: 37.5 mg/kg/injection, schedule: Q01DX001 (ip), vehicle: Klucel (hydroxypropylcellulose) (HPC) 107 % of control | dose: 75.0 mg/kg/injection, schedule: Q01DX001 (ip), vehicle: Klucel (hydroxypropylcellulose) (HPC) 116 % of control | dose: 150.0 mg/kg/injection, schedule: Q01DX001 (ip), vehicle: Klucel (hydroxypropylcellulose) (HPC) 98 % of control

CCCCCCCCSCCC(=O)O
inactive: [10] 97 % of control | [11] 97 % of control | [12] 88 % of control | [13] 92 % of control | [17] 94 % of control

O=c1[nH]c2ccccc2c2ccc(Br)cc12
inactive: [18] 104 % of control | [19] 97 % of control | [20] 90 % of control

CNC(=O)NNC(=O)CNC(=O)Nc1cccc([N+](=O)[O-])c1
inactive: dose: 25.0 mg/kg/injection, schedule: Q01DX009 (ip), vehicle: saline with Tween-80 91 % of control | [9] 94 % of control

CCC(c1ccc2cc(OC)ccc2c1)C(C)(C)C(=O)O (configuration not stated)
inactive: dose: 100.0 mg/kg/injection, schedule: Q01DX001 (sc), vehicle: steriod suspending solution 112 % of control | dose: 200.0 mg/kg/injection, schedule: Q01DX001 (sc), vehicle: steriod suspending solution 95 % of control | dose: 400.0 mg/kg/injection, schedule: Q01DX001 (sc), vehicle: steriod suspending solution 101 % of control

CCOC(=O)CCC(N)C(=O)O (configuration not stated)
inactive: dose: 100.0 mg/kg/injection, schedule: Q04DX002 (ip), vehicle: saline 110 % of control | dose: 200.0 mg/kg/injection, schedule: Q04DX002 (ip), vehicle: saline 106 % of control | dose: 400.0 mg/kg/injection, schedule: Q04DX002 (ip), vehicle: saline 102 % of control

CC(=O)N(c1ccccc1)c1ccc([N+](=O)[O-])cc1[N+](=O)[O-]
inactive: [18] 107 % of control | dose: 177.0 mg/kg/injection, schedule: Q01DX001 (ip), vehicle: carboxymethylcellulose (CMC) 94 % of control and 115 % of control | [19] 96 % of control | dose: 266.0 mg/kg/injection, schedule: Q01DX001 (ip), vehicle: carboxymethylcellulose (CMC) 97 % of control and 103 % of control | [20] 97 % of control and 100 % of control | dose: 600.0 mg/kg/injection, schedule: Q01DX001 (ip), vehicle: carboxymethylcellulose (CMC) 100 % of control and 105 % of control

COc1cc(NC(=O)Nc2ccc(F)c(Cl)c2)c(OC)cc1Cl
inactive: [1] 100 % of control | [2] 93 % of control | [3] 86 % of control

O=C1NCCNC1=O
inactive: [15] 101 % of control | [16] 100 % of control | [21] 105 % of control

Nc1cccc2c1-c1ccccc1/C2=N\O
inactive: [18] 97 % of control | [19] 105 % of control | [20] 103 % of control

Cc1nc2ccccc2c(=O)n1-c1ccccc1Cl
inactive: dose: 100.0 mg/kg/injection, schedule: Q01DX001 (ip), vehicle: saline with Tween-80 113 % of control | dose: 200.0 mg/kg/injection, schedule: Q01DX001 (ip), vehicle: saline with Tween-80 108 % of control | dose: 400.0 mg/kg/injection, schedule: Q01DX001 (ip), vehicle: saline with Tween-80 106 % of control

CN(Cc1ccccc1)C(=O)COc1ccc(Cl)c(Cl)c1
inactive: dose: 100.0 mg/kg/injection, schedule: Q01DX001 (ip), vehicle: Klucel (hydroxypropylcellulose) (HPC) 106 % of control | dose: 200.0 mg/kg/injection, schedule: Q01DX001 (ip), vehicle: Klucel (hydroxypropylcellulose) (HPC) 96 % of control | dose: 400.0 mg/kg/injection, schedule: Q01DX001 (ip), vehicle: Klucel (hydroxypropylcellulose) (HPC) 102 % of control

COc1ccc(C(=O)/C=C/c2cccc3ccccc23)cc1
inactive: dose: 100.0 mg/kg/injection, schedule: Q04DX002 (ip), vehicle: saline with Tween-80 86 % of control | dose: 200.0 mg/kg/injection, schedule: Q04DX002 (ip), vehicle: saline with Tween-80 86 % of control | dose: 400.0 mg/kg/injection, schedule: Q04DX002 (ip), vehicle: saline with Tween-80 86 % of control

CCCCCCCCCC(O)CCC (configuration not stated)
inactive: [4] 103 % of control | [5] 96 % of control | [6] 109 % of control | [7] 91 % of control | [14] 103 % of control | [8] 89 % of control

COc1cc([N+](=O)[O-])ccc1NC(=O)c1c(Br)c(Br)c(Br)c(Br)c1C(=O)O
inactive: [4] 101 % of control | [6] 106 % of control | [14] 106 % of control

C/C(=N/NC(=S)Nc1cc(I)ccc1C)c1cc(C)ccc1O
inactive: dose: 12.5 mg/kg/injection, schedule: Q04DX002 (ip), vehicle: Klucel (hydroxypropylcellulose) (HPC) 97 % of control | dose: 25.0 mg/kg/injection, schedule: Q04DX002 (ip), vehicle: Klucel (hydroxypropylcellulose) (HPC) 102 % of control | dose: 50.0 mg/kg/injection, schedule: Q04DX002 (ip), vehicle: Klucel (hydroxypropylcellulose) (HPC) 94 % of control

O=C1OC(=C(Br)Br)C2C3C=CC(CC3)C12 (configuration not stated)
inactive: [15] 95 % of control | [16] 98 % of control | [21] 98 % of control

CN(C)c1ccc(/C=C2\C=Cc3ccccc32)cc1Br
inactive: [11] 101 % of control

COCCOC(=O)Cc1cccc2ccccc12
inactive: dose: 222.0 mg/kg/injection, schedule: Q01DX Z (ip), vehicle: saline 90 % of control | dose: 333.0 mg/kg/injection, schedule: Q01DX Z (ip), vehicle: saline 100 % of control | dose: 500.0 mg/kg/injection, schedule: Q01DX Z (ip), vehicle: saline 110 % of control
